In ChEMBL document CHEMBL1134890, “Preparation of oxime dual NK(1)/NK(2) antagonists with reduced NK(3) affinity” (Bioorg Med Chem Lett, 2002):

Assays:
Type in all cases: cell-based
Substance-P receptor = Substance-P receptor (Homo sapiens, UniProt P25103); assay: Binding affinity against recombinant human tachykinin receptor 1 in CHO cells using [3H]-Sar SP as radioligand
Neuromedin-K receptor = target: T1, Neuromedin-K receptor (Homo sapiens, UniProt P29371); assay: Binding affinity against recombinant human tachykinin receptor 3 in CHO cells using [125I][MePhe]-NKB as radioligand
T1 sequence (P29371 whole entry): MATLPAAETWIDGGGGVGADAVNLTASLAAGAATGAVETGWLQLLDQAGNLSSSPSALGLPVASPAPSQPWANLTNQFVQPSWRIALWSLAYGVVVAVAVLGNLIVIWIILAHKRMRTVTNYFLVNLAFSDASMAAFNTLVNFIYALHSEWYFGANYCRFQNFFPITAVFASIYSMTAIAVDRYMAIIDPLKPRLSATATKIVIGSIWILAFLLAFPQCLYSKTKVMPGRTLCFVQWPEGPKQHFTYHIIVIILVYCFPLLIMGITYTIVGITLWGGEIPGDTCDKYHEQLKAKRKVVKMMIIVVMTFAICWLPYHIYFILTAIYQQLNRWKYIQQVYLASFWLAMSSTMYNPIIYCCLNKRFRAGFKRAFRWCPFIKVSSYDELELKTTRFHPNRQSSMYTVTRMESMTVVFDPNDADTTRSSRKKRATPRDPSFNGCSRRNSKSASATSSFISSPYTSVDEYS

Substance-K receptor = target: T2, Substance-K receptor (Homo sapiens, UniProt P21452); assay: Binding affinity against recombinant human tachykinin receptor 2 in CHO cells using [3H]-NKA as radioligand
T2 sequence (P21452 whole entry): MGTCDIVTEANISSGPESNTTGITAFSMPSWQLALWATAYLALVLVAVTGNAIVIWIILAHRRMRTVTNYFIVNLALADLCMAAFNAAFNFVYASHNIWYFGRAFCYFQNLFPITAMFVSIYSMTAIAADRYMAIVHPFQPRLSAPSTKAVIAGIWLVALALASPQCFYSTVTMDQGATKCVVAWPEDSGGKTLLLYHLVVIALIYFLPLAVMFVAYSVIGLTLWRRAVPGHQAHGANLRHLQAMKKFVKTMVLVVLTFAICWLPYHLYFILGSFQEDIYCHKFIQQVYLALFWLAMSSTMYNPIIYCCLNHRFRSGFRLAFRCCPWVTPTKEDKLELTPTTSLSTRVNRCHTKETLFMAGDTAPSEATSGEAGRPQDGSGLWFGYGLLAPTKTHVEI

Chain of Substance-P receptor (P25103 whole entry): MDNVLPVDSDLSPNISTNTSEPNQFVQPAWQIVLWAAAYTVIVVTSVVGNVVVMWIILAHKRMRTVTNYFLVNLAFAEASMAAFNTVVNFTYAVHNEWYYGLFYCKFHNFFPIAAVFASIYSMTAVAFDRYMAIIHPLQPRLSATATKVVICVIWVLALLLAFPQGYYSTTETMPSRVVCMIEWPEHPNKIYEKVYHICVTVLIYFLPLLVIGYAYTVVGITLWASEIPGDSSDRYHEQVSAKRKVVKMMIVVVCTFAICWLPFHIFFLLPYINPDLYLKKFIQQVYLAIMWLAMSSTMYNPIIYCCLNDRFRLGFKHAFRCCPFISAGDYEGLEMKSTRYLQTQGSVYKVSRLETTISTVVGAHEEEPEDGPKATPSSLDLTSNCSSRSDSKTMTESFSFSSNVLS

SMILES: CCN(C/C(=N\OC)[C@H](CCN1CCC(n2c(=O)n(CC#N)c3ccccc32)CC1)c1ccc(Cl)c(Cl)c1)C(=O)c1cc(Cl)cc(Cl)c1
- Ki (Substance-P receptor): 2.3 nM
- Ki (Neuromedin-K receptor): 674 nM
- Ki (Substance-K receptor): 2.5 nM

SMILES: CNC(=O)CN1CCCN(C2CCN(CC[C@@H](/C(CN(C)C(=O)c3cc(Cl)cc(Cl)c3)=N/OC)c3ccc(Cl)c(Cl)c3)CC2)C1=O
- Ki (Substance-P receptor): 0.9 nM
- Ki (Neuromedin-K receptor): 1.3 nM
- Ki (Substance-K receptor): 1.2 nM

SMILES: CO/N=C(\CN(C)C(=O)c1cc(Cl)cc(Cl)c1)[C@H](CCN1CCC(N2CCCN(Cc3ccsc3)C2=O)CC1)c1ccc(Cl)c(Cl)c1
- Ki (Substance-P receptor): 2.4 nM
- Ki (Neuromedin-K receptor): 3.2 nM
- Ki (Substance-K receptor): 1.2 nM

SMILES: CO/N=C(\CN(CCF)C(=O)c1cc(Cl)cc(Cl)c1)[C@H](CCN1CCC(n2c(=O)n(CC(=O)O)c3ccccc32)CC1)c1ccc(Cl)c(Cl)c1
- Ki (Substance-P receptor): 1.2 nM
- Ki (Neuromedin-K receptor): 304 nM
- Ki (Substance-K receptor): 3.1 nM

SMILES: CCOC(=O)[C@@H](Cc1ccc(O)cc1)N1CCCN(C2CCN(CC[C@@H](/C(CN(C)C(=O)c3cc(Cl)cc(Cl)c3)=N/OC)c3ccc(Cl)c(Cl)c3)CC2)C1=O
- Ki (Substance-P receptor): 1.6 nM
- Ki (Neuromedin-K receptor): 10.9 nM
- Ki (Substance-K receptor): 1.2 nM

SMILES: CO/N=C(\CN(C)C(=O)c1cc(Cl)cc(Cl)c1)[C@H](CCN1CCC(N2CCCN(C)C2=O)CC1)c1ccc(Cl)c(Cl)c1
- Ki (Substance-P receptor): 0.4 nM
- Ki (Neuromedin-K receptor): 0.8 nM
- Ki (Substance-K receptor): 0.7 nM

SMILES: CO/N=C(\CN(C)C(=O)c1cc(Cl)cc(Cl)c1)[C@H](CCN1CCC(N2CCCN(CC(N)=O)C2=O)CC1)c1ccc(Cl)c(Cl)c1
- Ki (Substance-P receptor): 0.3 nM
- Ki (Neuromedin-K receptor): 0.4 nM
- Ki (Substance-K receptor): 0.2 nM

SMILES: CO/N=C(\CN(C(=O)c1cc(Cl)cc(Cl)c1)C1CC1)[C@H](CCN1CCC(n2c(O)nc3ccccc32)CC1)c1ccc(Cl)c(Cl)c1
- Ki (Substance-P receptor): 157 nM
- Ki (Neuromedin-K receptor): 103 nM
- Ki (Substance-K receptor): 2.5 nM

SMILES: CCN(C/C(=N\OC)[C@H](CCN1CCC(n2c(=O)n(CCOC)c3ccccc32)CC1)c1ccc(Cl)c(Cl)c1)C(=O)c1cc(Cl)cc(Cl)c1
- Ki (Substance-P receptor): 2 nM
- Ki (Neuromedin-K receptor): 572 nM
- Ki (Substance-K receptor): 4 nM

SMILES: CCN(C/C(=N\OC)[C@H](CCN1CCC(n2c(=O)n(Cc3ccccn3)c3ccccc32)CC1)c1ccc(Cl)c(Cl)c1)C(=O)c1cc(Cl)cc(Cl)c1
- Ki (Substance-P receptor): 2.7 nM
- Ki (Neuromedin-K receptor): 312 nM
- Ki (Substance-K receptor): 2.8 nM

SMILES: CNC(=O)C[C@H]1CCCN(C2CCN(CC[C@@H](/C(CN(C)C(=O)c3cc(Cl)cc(Cl)c3)=N/OC)c3ccc(Cl)c(Cl)c3)CC2)C1=O
- Ki (Substance-P receptor): 1.3 nM
- Ki (Neuromedin-K receptor): 0.3 nM
- Ki (Substance-K receptor): 0.4 nM

SMILES: CO/N=C(\CN(C)C(=O)c1cc(Cl)cc(Cl)c1)[C@H](CCN1CCC(N2CCCN(Cc3ccccn3)C2=O)CC1)c1ccc(Cl)c(Cl)c1
- Ki (Substance-P receptor): 0.7 nM
- Ki (Neuromedin-K receptor): 0.8 nM
- Ki (Substance-K receptor): 0.7 nM

SMILES: CO/N=C(\CN(C)C(=O)c1cc(Cl)cc(Cl)c1)[C@H](CCN1CCC(N2CCCN(CC(=N)NO)C2=O)CC1)c1ccc(Cl)c(Cl)c1
- Ki (Substance-P receptor): 0.6 nM
- Ki (Neuromedin-K receptor): 0.5 nM
- Ki (Substance-K receptor): 0.8 nM

SMILES: CO/N=C(\CN(C)C(=O)c1cc(Cl)cc(Cl)c1)[C@H](CCN1CCC(N2CCCN([C@H](CO)C(N)=O)C2=O)CC1)c1ccc(Cl)c(Cl)c1
- Ki (Substance-P receptor): 0.6 nM
- Ki (Neuromedin-K receptor): 0.3 nM
- Ki (Substance-K receptor): 0.5 nM

SMILES: CO/N=C(\CN(CCF)C(=O)c1cc(Cl)cc(Cl)c1)[C@H](CCN1CCC(n2c(O)nc3ccccc32)CC1)c1ccc(Cl)c(Cl)c1
- Ki (Substance-P receptor): 3.2 nM
- Ki (Neuromedin-K receptor): 231 nM
- Ki (Substance-K receptor): 4.9 nM

SMILES: CO/N=C(\CN(C)C(=O)c1cc(Cl)cc(Cl)c1)[C@H](CCN1CCC(N2CCCN(CC(C)(C)O)C2=O)CC1)c1ccc(Cl)c(Cl)c1
- Ki (Substance-K receptor): 0.8 nM

SMILES: CO/N=C(\CN(C)C(=O)c1cc(Cl)cc(Cl)c1)[C@H](CCN1CCC(n2c(=O)n(CC(=O)O)c3ccccc32)CC1)c1ccc(Cl)c(Cl)c1
- Ki (Substance-P receptor): 1.3 nM
- Ki (Neuromedin-K receptor): 11 nM
- Ki (Substance-K receptor): 1.7 nM
